Assays:
SLEV [1] = assay: Viral load by plaque-forming assay, SLEV-infected HBEC-5i; format: cell-based, St. Louis encephalitis virus (SLEV BeH 355964)
[2] = tested on: SLEV infection in Vero CCL81 cells; format: cell-based, St. Louis encephalitis virus (SLEV BeH 355964); conditions: 20 µM
[3] = Confirmatory dose-response assay, cytotoxicity (CC50); conditions: African green monkey, Vero CCL81 cells
HBEC-5i cells = assay: MTT cell viability assay, HBEC-5i; conditions: HBEC-5i; for toxicity at lower concentrations: 20 µM to 2.5 µM, MOI 0.1, 48 h (Figure 5); for reduction in cell viability / toxicity: 20 µM, 48 h
Huh-7 cells = assay: MTT cell viability assay, Huh-7; conditions: Huh-7, 48 h; for loss/reduction in cell viability vs vehicle-treated cells: 20 µM
Vero CCL81 cells [4] = assay: MTT cell viability assay, Vero CCL81
Vero CCL81 cells [5] = assay: Confirmatory dose-response assay, cytotoxicity (CC50); conditions: Vero CCL81, dose-response 100 to 0.32 µM
[6] = tested on: SLEV infection in Vero CCL81 cells; assay: microbe, parasite or virus in culture; format: cell-based, St. Louis encephalitis virus (SLEV BeH 355964); conditions: for EC50: St. Louis encephalitis virus, 72 h
[7] = MTT cell viability assay, HBEC-5i; conditions: human, HBEC-5i cells
SLEV [8] = assay: Viral load by plaque-forming assay, SLEV-infected Vero CCL81; format: cell-based, St. Louis encephalitis virus (SLEV BeH 355964); conditions: Vero CCL81, MOI 0.1
SLEV [9] = assay: Viral load by plaque-forming assay, SLEV-infected Huh-7; format: cell-based, St. Louis encephalitis virus (SLEV BeH 355964); conditions: Huh-7, MOI 0.1, 48 h

## OCCN1CCN(CCCN2c3ccccc3Sc3ccc(C(F)(F)F)cc32)CC1 [Fluphenazine]
SLEV [1]; 20 µM, MOI 0.1, 48 h
  reduction in viral titers in culture supernatant: > 100 fold
SLEV [1]; 20 µM, MOI 0.1, 48 h, concentration series (Figure 5)
  reduction in viral load: over 50 fold
[2]
  inhibition of SLEV-induced CPE (hit call, cytoprotective effect): cytoprotective effect
[3]
  CC50 at 72 h: 30.2 µM
HBEC-5i cells
  toxicity at lower concentrations: not toxic
  reduction in cell viability / toxicity: not toxic
Huh-7 cells
  loss/reduction in cell viability vs vehicle-treated cells: 90%

## CC[C@@H]([C@H](C)O)n1ncn(-c2ccc(N3CCN(c4ccc(OC[C@@H]5CO[C@@](Cn6cncn6)(c6ccc(F)cc6F)C5)cc4)CC3)cc2)c1=O [Posaconazole]
[2]
  inhibition of SLEV-induced CPE (hit call, cytoprotective effect): cytoprotective effect
Vero CCL81 cells [4]; 20 µM, Vero CCL81, vs non-treated controls
  reduction in cell viability: 40%
[3]
  CC50 at 72 h: > 100 µM
Vero CCL81 cells [5]
  CC50: least cytotoxic
[6]
  EC50: 0.4 µM
[6]; Vero CCL81
  Selectivity Index (SI, CC50/EC50 ratio): ≥ 12
HBEC-5i cells
  reduction in cell viability / toxicity: approximately 70%
Huh-7 cells
  loss/reduction in cell viability vs vehicle-treated cells: 50%

## NCCc1cn(S(=O)(=O)c2c(Cl)nc3sccn23)c2ccccc12 [SAX-187]
[2]
  inhibition of SLEV-induced CPE (hit call, cytoprotective effect): cytoprotective effect

## COc1cccc(-c2ccc(NC(=O)C3=C(C(=O)O)CCC3)c(F)c2)c1 [Vidofludimus]
SLEV [1]; 20 µM, MOI 0.1, 48 h
  reduction in viral titers in culture supernatant: No antiviral activity
[2]
  inhibition of SLEV-induced CPE (hit call, cytoprotective effect): cytoprotective effect
[3]
  CC50 at 72 h: > 100 µM
Vero CCL81 cells [5]
  CC50: least cytotoxic
[6]
  EC50: 8.2 µM
[7]
  viability at 48 h, 20 µM: ≤ 90%
SLEV [8]; 20 µM
  reduction in viral load relative to vehicle-treated controls: approximately 10 fold
Huh-7 cells
  loss/reduction in cell viability vs vehicle-treated cells: approx. 10%

## CCCCc1oc2ccccc2c1C(=O)c1cc(I)c(OCCN(CC)CC)c(I)c1 [Amiodarone]
SLEV [1]; 20 µM, MOI 0.1, 48 h
  reduction in viral titers in culture supernatant: over 10 fold
[2]
  inhibition of SLEV-induced CPE (hit call, cytoprotective effect): cytoprotective effect
SLEV [9]; 20 µM
  reduction in viral load: not significant
Huh-7 cells
  loss/reduction in cell viability vs vehicle-treated cells: approx. 10%

## C[C@@H]1CCCN1CCc1cc2cc(-c3ccc(C#N)cc3)ccc2o1 [ABT-239, 4-(2-{2-[(2R)-2-Methylpyrrolidinyl]ethyl}-benzofuran-5-yl)benzonitrile]
SLEV [1]; 20 µM, MOI 0.1, 48 h
  reduction in viral titers in culture supernatant: approx. 10 fold
[2]
  inhibition of SLEV-induced CPE (hit call, cytoprotective effect): cytoprotective effect
[3]
  CC50 at 72 h: 80.2 µM
[6]
  EC50: 3.4 µM
HBEC-5i cells
  reduction in cell viability / toxicity: not toxic
SLEV [8]; 20 µM
  reduction in viral load relative to vehicle-treated controls: approximately 10 fold
Huh-7 cells
  loss/reduction in cell viability vs vehicle-treated cells: approx. 10%

## CCN(CC)CCOc1ccc(C(O)(Cc2ccc(Cl)cc2)c2ccc(C)cc2)cc1 (stereo not shown) [Triparanol]
SLEV [1]; 2.5 µM, MOI 0.1, 48 h (Figure 5)
  antiviral effect (viral load): lost
SLEV [1]; 5 µM, MOI 0.1, 48 h (Figure 5)
  antiviral effect (viral load): lost
SLEV [1]; 10 µM, MOI 0.1, 48 h (Figure 5)
  reduction in viral load vs vehicle-treated infected group: over 10 fold
[2]
  inhibition of SLEV-induced CPE (hit call, cytoprotective effect): cytoprotective effect
[3]
  CC50 at 72 h: 18.5 µM
[6]
  EC50: 0.9 µM
HBEC-5i cells
  toxicity at lower concentrations: not toxic
  reduction in cell viability / toxicity: ~60%
Huh-7 cells
  loss/reduction in cell viability vs vehicle-treated cells: 90%

## FC(F)(F)c1ccc(CNc2ccc(Cc3c[nH]c4ncc(Cl)cc34)cn2)cn1 [Pexidartanib]
[2]
  inhibition of SLEV-induced CPE (hit call, cytoprotective effect): cytoprotective effect

## C[C@@]1(O)[C@H](O)[C@@H](CO)O[C@H]1n1ccc2c(N)ncnc21 [7DMA, 7-deaza-2′-C-methyl-D-adenosine]
Vero CCL81 cells [4]; 40 µM (7DMA), Vero CCL81
  reduction in cell viability: less than 10%
[3]
  CC50 at 72 h: > 100 µM
Vero CCL81 cells [5]
  CC50: least cytotoxic
[6]
  EC50: 5.1 µM
SLEV [9]; 40 µM (7DMA)
  reduction in viral load: 10 fold
SLEV [8]; 40 µM (7DMA)
  reduction in viral load relative to vehicle-treated controls: approximately 10 fold
Huh-7 cells; 40 µM (7DMA)
  reduction in cell viability vs vehicle-treated cells: approx. 10%
